Measurements from ChEMBL document CHEMBL1201862, “PubChem BioAssay data set” (2004).
The source made the active and inactive calls.

Columns and labels:
[1] = biological target: Glucose-6-phosphate 1-dehydrogenase (Homo sapiens, UniProt P11413); test: human G6PD enzyme inhibitors, dose response, selectivity assay for P. falciparum G6PD inhibitor project, biochemical, fluorescence (AID 504792); type: functional
[2] = biological target: 5-hydroxytryptamine receptor 5A (Homo sapiens, UniProt P47898); test: Counterscreen for agonists of OPRM1-OPRD1 heterodimerization: luminescence-based cell-based high throughput dose response assay to identify agonists of 5-hydroxytryptamine (serotonin) 5A receptor (HTR5A). [Related pubchem assays (depositor defined):AID504326, AID504355, AID504692, AID504904, AID504905]; type: functional
[3] = biological target: Delta-type opioid receptor (Homo sapiens, UniProt P41143); test: Counterscreen for agonists of heterodimerization of the mu 1 (OPRM1) and delta 1 (OPRD1) opioid receptors: Luminescence-based cell-based high throughput dose response assay to identify agonists of OPRD1 homodimerization. [Related pubchem assays (depositor defined):AID504326, AID504355, AID504692, AID504904, AID504905]; type: functional
[4] = biological target: Mu-type opioid receptor (Homo sapiens, UniProt P35372); test: Counterscreen for agonists of heterodimerization of the mu 1 (OPRM1) and delta 1 (OPRD1) opioid receptors: Luminescence-based cell-based high throughput dose response assay to identify agonists of OPRM1 homodimerization.; type: functional;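 also: U2OS cells expressing OPRM1 and beta-arrestin as split beta-galactosidase partners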
[5] = biological target: T1, Heat shock factor protein 1 (Mus musculus, UniProt P38532); test: inhibition of MG132-induced HSE-luciferase signal, confirmation, cell-based, NIH3T3, luminescence, dose retest (AID 2382); type: functional;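 also: NIH3T3 fibroblasts with HSF1-driven luciferase reporter stressed by proteasome inhibitor MG132; luminescence from HSF1-driven luciferase expression after 8 hours of MG132 stress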
T1 sequence (P38532 whole entry): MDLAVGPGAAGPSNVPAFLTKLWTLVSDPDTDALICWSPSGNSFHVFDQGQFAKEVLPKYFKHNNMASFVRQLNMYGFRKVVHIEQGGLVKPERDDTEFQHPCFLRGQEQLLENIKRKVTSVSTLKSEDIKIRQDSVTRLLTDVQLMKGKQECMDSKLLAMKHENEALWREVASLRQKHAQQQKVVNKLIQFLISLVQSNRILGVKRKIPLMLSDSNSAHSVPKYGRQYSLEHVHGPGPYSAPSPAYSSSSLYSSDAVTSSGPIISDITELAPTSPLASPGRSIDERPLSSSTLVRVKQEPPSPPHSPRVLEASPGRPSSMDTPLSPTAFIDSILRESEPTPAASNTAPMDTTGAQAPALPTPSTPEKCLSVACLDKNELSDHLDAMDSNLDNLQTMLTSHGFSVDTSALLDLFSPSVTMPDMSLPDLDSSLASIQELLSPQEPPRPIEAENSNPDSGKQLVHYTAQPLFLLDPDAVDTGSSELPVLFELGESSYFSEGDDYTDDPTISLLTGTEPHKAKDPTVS

[6] = test system: H4; test: Luminescence Cell-Based Dose Response HTS to Identify Activators of 5'UTR Stem-Loop Driven Prion Protein mRNA Translation in H4 Neuroglioblastoma Cells. [Related pubchem assays: 1829 (Project Summary), 1814 (Primary HTS)]; type: functional; settings: Homo sapiens
[7] = test system: HeLa; test: HeLa cell cytotoxicity, dose response, cytotoxicity control for MITF activator project, CellTiter-Glo luminescence, cherry-pick samples (AID 540259); type: functional, cell-based; settings: Homo sapiens

Glucose-6-phosphate 1-dehydrogenase, sequence (P11413 whole entry): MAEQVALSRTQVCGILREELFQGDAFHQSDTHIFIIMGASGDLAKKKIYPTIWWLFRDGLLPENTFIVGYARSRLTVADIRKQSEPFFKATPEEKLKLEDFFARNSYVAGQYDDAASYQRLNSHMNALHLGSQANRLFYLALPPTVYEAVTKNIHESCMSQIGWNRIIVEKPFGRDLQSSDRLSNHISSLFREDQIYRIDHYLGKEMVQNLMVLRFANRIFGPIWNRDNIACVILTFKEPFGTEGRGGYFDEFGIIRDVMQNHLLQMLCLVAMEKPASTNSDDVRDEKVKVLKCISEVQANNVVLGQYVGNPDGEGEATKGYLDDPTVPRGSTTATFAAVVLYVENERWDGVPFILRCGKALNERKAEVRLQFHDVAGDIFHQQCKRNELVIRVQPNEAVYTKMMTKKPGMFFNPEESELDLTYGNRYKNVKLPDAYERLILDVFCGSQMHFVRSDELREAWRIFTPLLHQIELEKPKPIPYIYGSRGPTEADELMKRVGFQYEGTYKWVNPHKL
Delta-type opioid receptor, sequence (P41143 whole entry): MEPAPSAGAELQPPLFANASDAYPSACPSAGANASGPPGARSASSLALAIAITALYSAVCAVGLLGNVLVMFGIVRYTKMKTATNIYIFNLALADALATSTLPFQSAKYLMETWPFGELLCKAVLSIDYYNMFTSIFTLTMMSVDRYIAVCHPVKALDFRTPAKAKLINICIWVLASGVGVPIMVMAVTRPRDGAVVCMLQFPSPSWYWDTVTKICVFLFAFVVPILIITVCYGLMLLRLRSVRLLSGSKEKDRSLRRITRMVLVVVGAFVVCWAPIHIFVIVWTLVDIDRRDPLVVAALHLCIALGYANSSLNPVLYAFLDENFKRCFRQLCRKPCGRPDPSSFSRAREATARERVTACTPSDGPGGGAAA
5-hydroxytryptamine receptor 5A, sequence (P47898 whole entry): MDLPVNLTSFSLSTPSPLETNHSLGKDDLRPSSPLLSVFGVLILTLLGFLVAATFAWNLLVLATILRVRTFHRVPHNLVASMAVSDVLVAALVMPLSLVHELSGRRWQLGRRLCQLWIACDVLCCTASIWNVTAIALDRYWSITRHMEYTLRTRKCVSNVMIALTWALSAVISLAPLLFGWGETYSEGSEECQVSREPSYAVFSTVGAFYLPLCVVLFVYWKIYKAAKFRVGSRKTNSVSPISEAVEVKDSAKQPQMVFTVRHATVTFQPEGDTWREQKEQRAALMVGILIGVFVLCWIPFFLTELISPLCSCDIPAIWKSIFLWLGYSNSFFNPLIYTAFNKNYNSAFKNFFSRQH
Mu-type opioid receptor, sequence (P35372 whole entry): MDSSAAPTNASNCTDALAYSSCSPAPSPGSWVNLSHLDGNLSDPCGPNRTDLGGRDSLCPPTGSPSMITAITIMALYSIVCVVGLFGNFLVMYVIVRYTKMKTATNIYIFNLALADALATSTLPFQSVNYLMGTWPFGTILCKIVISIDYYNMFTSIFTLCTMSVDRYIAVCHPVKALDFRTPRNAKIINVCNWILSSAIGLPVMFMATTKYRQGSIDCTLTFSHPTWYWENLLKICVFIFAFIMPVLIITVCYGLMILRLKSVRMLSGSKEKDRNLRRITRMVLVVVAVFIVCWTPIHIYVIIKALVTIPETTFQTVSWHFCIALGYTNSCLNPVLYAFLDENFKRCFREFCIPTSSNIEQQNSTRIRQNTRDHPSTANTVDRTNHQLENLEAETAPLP

With `O=C(COC(=O)c1cnccn1)c1ccc([N+](=O)[O-])cc1` the IC50 [1] was > 80 µM (inactive).
For `Cc1cc(/C=C2/C(=O)NN(c3ccccc3)C2=O)c(C)n1-c1ccc(O)cc1`, the EC50 [2] was > 92.5 µM (inactive), the EC50 [3] was 9.3 µM (active) and the EC50 [4] was > 92.5 µM (inactive). The EC50 [5] was 4.81 µM (active) and the EC50 [6] was < 0.1 µM (active).
For `Cc1nn2cc(-c3ccc(Cl)cc3)cnc2c1Cl`, the AC50 [7] was 108 µM (active).
`COc1ccc(CN(C)S(=O)(=O)c2nnc(NC(=O)c3cccc(C)c3)s2)cc1OC` was tested, and the IC50 [1] was 61.2 µM (inactive).
